Data taken from patent US20240368120A1 (Terns Pharmaceuticals, Inc., priority 2023, published 2024).

Target: T1, human GLP-1R receptor (Homo sapiens, UniProt P43220)
T1 construct: expressed in transfected cells
Assay: GLP-1R low expression cell assay (cAMP TR-FRET, CHO-K1_hGLP-1Rlow_clone10 cells)
Format: cell-based
Details: for EC50: cAMP TR-FRET, 30 min at 25° C.; for Emax: maximum activation relative to control GLP-1 peptide agonist
How it was run: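 Readout is cAMP TR-FRET after 30 min compound stimulation at 25 °C of a low-GLP-1R-expressing CHO-K1 clone (1,000 cells/well), with 10-point 3-fold serial dilutions. Percent activation versus a control GLP-1 peptide, from duplicates, was Hill-fitted to give EC50.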

T1 sequence (P43220 24-463): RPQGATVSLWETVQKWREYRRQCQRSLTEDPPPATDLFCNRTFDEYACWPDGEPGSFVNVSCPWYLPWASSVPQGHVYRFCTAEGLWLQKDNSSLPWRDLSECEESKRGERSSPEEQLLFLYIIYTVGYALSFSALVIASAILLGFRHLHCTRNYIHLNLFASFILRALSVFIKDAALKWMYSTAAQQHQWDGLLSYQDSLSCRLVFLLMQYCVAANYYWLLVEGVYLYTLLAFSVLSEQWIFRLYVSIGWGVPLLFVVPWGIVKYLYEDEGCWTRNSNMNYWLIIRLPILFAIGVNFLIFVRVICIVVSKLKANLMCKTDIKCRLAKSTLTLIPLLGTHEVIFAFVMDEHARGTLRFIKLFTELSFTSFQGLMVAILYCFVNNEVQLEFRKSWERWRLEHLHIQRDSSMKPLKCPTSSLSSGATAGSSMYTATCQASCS

Row | EC50 [µM] | Emax [%] | Structure (SMILES)
1 | > 1 | < 25 | CN1C(=O)[C@H](c2ccc(Cl)cc2F)Oc2c(C3CCN(Cc4nc5c(OC(F)F)cc(C(=O)O)cc5n4C)CC3)cccc21 [Compound 241, (S)-2-((4-(2-(4-chloro-2-fluorophenyl)-4-methyl-3-oxo-3,4-dihydro-2H-benzo[b][1,4]oxazin-8-yl)piperidin-1-yl)methyl)-4-(difluoromethoxy)-1-methyl-1H-benzo[d]imidazole-6-carboxylic acid]
2 | 0.01 to 0.1 | > 85 | Cn1c(CN2CC=C(c3cccc(OCc4ccc(Cl)cc4F)n3)CC2)nc2c(OC(F)F)cc(C(=O)O)cc21 [Compound 155, 2-((6-((4-Chloro-2-fluorobenzyl)oxy)-3′,6′-dihydro-[2,4′-bipyridin]-1′(2′H)-yl)methyl)-4-(difluoromethoxy)-1-methyl-1H-benzo[d]imidazole-6-carboxylic acid]
3 | 0.01 to 0.1 | > 85 | Cn1c(CN2CCN(c3cccc(OCc4ccc(Cl)cc4F)n3)CC2)nc2c(OC(F)F)cc(C(=O)O)cc21 [Compound 150, 2-((4-(6-((4-Chloro-2-fluorobenzyl)oxy)pyridin-2-yl)piperazin-1-yl)methyl)-4-(difluoromethoxy)-1-methyl-1H-benzo[d]imidazole-6-carboxylic acid]
4 | > 1 | 50 to 85 | Cn1c(CN2CCC(c3cccc(COc4ccc(Cl)cc4F)n3)C2)nc2c(OC(F)F)cc(C(=O)O)cc21 (stereo not drawn) [Compound 362, 2-((3-(6-((4-Chloro-2-fluorophenoxy)methyl)pyridin-2-yl)pyrrolidin-1-yl)methyl)-4-(difluoromethoxy)-1-methyl-1H-benzo[d]imidazole-6-carboxylic acid]
5 | < 0.01 | > 85 | COCC(F)(F)Oc1cc(C(=O)O)cc2c1nc(CN1CCC(c3cccc(OCc4ccc(Cl)cc4F)n3)CC1)n2C [Compound 227, 2-((4-(6-((4-Chloro-2-fluorobenzyl)oxy)pyridin-2-yl)piperidin-1-yl)methyl)-4-(1,1-difluoro-2-methoxyethoxy)-1-methyl-1H-benzo[d]imidazole-6-carboxylic acid]
6 | 0.01 to 0.1 | > 85 | Cn1c(CN2CCC(Oc3cccc(COc4ccc(Cl)cc4F)n3)CC2)nc2c(OC(F)F)cc(C(=O)O)cc21 [Compound 196, 2-((4-((6-((4-Chloro-2-fluorophenoxy)methyl)pyridin-2-yl)oxy)piperidin-1-yl)methyl)-4-(difluoromethoxy)-1-methyl-1H-benzo[d]imidazole-6-carboxylic acid]
7 | 0.01 to 0.1 | > 85 | Cc1ccc(COc2c(F)cccc2C2CCN(Cc3nc4c(OC(F)F)cc(C(=O)O)cc4n3C)CC2)c(F)c1 [Compound 139, 4-(Difluoromethoxy)-2-((4-(3-fluoro-2-((2-fluoro-4-methylbenzyl)oxy)phenyl)piperidin-1-yl)methyl)-1-methyl-1H-benzo[d]imidazole-6-carboxylic acid]
8 | 0.1 to 1 | > 85 | Cn1c(CN2CCC(c3cncc(OCc4ccc(Cl)cc4F)n3)CC2)nc2c(OC(F)F)cc(C(=O)O)cc21 [Compound 374, 2-((4-(6-((4-Chloro-2-fluorobenzyl)oxy)pyrazin-2-yl)piperidin-1-yl)methyl)-4-(difluoromethoxy)-1-methyl-1H-benzo[d]imidazole-6-carboxylic acid]
9 | > 1 | 50 to 85 | Cn1c(CN2CCC(c3cc(OCc4ccc(C#N)cc4F)ccc3F)CC2)nc2c(OC(F)F)cc(C(=O)O)cc21 [Compound 181, 2-((4-(5-((4-Cyano-2-fluorobenzyl)oxy)-2-fluorophenyl)piperidin-1-yl)methyl)-4-(difluoromethoxy)-1-methyl-1H-benzo[d]imidazole-6-carboxylic acid]
10 | > 1 | 50 to 85 | Cn1c(CN2CCC(c3cccnc3NCc3ccc(Cl)cc3F)CC2)nc2c(OC(F)F)cc(C(=O)O)cc21 [Compound 239, 2-((4-(2-((4-Chloro-2-fluorobenzyl)amino)pyridin-3-yl)piperidin-1-yl)methyl)-4-(difluoromethoxy)-1-methyl-1H-benzo[d]imidazole-6-carboxylic acid]

The remaining lines, values behind:

Row | Structure (SMILES) | EC50 [µM] | Emax [%]
11 | [2H]C([2H])(C)Oc1cc(C(=O)O)cc2c1nc(CN1CCC(c3cccc(OC([2H])([2H])c4ccc(Cl)cc4F)n3)CC1)n2C [Compound 286, 2-((4-(6-((4-Chloro-2-fluorophenyl)methoxy-d2)pyridin-2-yl)piperidin-1-yl)methyl)-4-(ethoxy-1,1-d2)-1-methyl-1H-benzo[d]imidazole-6-carboxylic acid] | < 0.01 | > 85
12 | Cn1c(CN2CC=C(c3ccc(F)c(OCc4ccc(Cl)cc4F)c3)CC2)nc2c(OC(F)F)cc(C(=O)O)cc21 [Compound 152, 2-((4-(3-((4-Chloro-2-fluorobenzyl)oxy)-4-fluorophenyl)-3,6-dihydropyridin-1(2H)-yl)methyl)-4-(difluoromethoxy)-1-methyl-1H-benzo[d]imidazole-6-carboxylic acid] | 0.01 to 0.1 | > 85
13 | Cn1c(N(C)[C@H]2CC[C@@H](c3cccc(OCc4ccc(C#N)cc4F)n3)CC2)nc2c(OC(F)F)cc(C(=O)O)cc21 [Compound 142, 2-(((1s,4s)-4-(6-((4-Cyano-2-fluorobenzyl)oxy)pyridin-2-yl)cyclohexyl)(methyl)amino)-4-(difluoromethoxy)-1-methyl-1H-benzo[d]imidazole-6-carboxylic acid] | > 1 | > 85
14 | N#Cc1ccc(COc2cccc(C3CCN(Cc4nc5c(O)c(C(=O)O)ccc5n4C[C@@H]4CCO4)CC3)n2)c(F)c1 [Compound 376, (S)-2-((4-(6-((4-Cyano-2-fluorobenzyl)oxy)pyridin-2-yl)piperidin-1-yl)methyl)-4-hydroxy-1-(oxetan-2-ylmethyl)-1H-benzo[d]imidazole-5-carboxylic acid] | < 0.01 | > 85
15 | Cn1c(CN2CCC(Oc3cccc(COc4ccc(C#N)cc4F)n3)CC2)nc2c(OC(F)F)cc(C(=O)O)cc21 [Compound 149, 2-((4-((6-((4-Cyano-2-fluorophenoxy)methyl)pyridin-2-yl)oxy)piperidin-1-yl)methyl)-4-(difluoromethoxy)-1-methyl-1H-benzo[d]imidazole-6-carboxylic acid] | 0.01 to 0.1 | > 85
16 | N#Cc1ccc(COc2cccc(C3CCN(Cc4nc5cnc(C(=O)O)cc5n4C[C@@H]4CCO4)CC3)n2)c(F)c1 [Compound 378, (S)-2-((4-(6-((4-Cyano-2-fluorobenzyl)oxy)pyridin-2-yl)piperidin-1-yl)methyl)-1-(oxetan-2-ylmethyl)-1H-imidazo[4,5-c]pyridine-6-carboxylic acid] | 0.01 to 0.1 | > 85
17 | Cn1c(Cc2ccc(Oc3cccc(COc4ccc(Cl)cc4F)n3)cc2F)nc2c(OC(F)F)cc(C(=O)O)cc21 [Compound 367, 2-(4-((6-((4-Chloro-2-fluorophenoxy)methyl)pyridin-2-yl)oxy)-2-fluorobenzyl)-4-(difluoromethoxy)-1-methyl-1H-benzo[d]imidazole-6-carboxylic acid] | > 1 | > 85
18 | O=C(O)c1cc(OC(F)F)c2c(c1)nc(CN1CCC(c3cccc(OCc4ccc(Cl)cc4F)n3)CC1)n2CF [Compound 206, 2-((4-(6-((4-Chloro-2-fluorobenzyl)oxy)pyridin-2-yl)piperidin-1-yl)methyl)-7-(difluoromethoxy)-1-(fluoromethyl)-1H-benzo[d]imidazole-5-carboxylic acid] | > 1 | < 25
